Measured values: publication PMC3104491 (mBio, 2011)

Key:
[1] = target: T1, CTL843 (SAMHT, SAM/SAH transporter) (Chlamydia trachomatis, UniProt B0B8F4); assay: inhibition of […]SAM uptake in whole E. coli cells expressing CTL843; assay type: cell-based
T1 sequence (B0B8F4 1-327): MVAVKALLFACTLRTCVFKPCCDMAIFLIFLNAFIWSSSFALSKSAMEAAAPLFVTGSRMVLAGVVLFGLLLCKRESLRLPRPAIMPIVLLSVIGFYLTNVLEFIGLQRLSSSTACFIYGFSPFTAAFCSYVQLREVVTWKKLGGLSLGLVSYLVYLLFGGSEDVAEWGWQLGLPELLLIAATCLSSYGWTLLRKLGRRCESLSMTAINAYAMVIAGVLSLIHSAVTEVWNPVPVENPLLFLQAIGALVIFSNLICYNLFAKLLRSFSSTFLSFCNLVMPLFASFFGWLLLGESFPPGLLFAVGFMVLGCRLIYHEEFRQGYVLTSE

[2] = substrate: C[S@@+](CC[C@H](N)C(=O)O)C[C@H]1O[C@@H](n2cnc3c(N)ncnc32)[C@H](O)[C@@H]1O; assay: cells, lysate or membranes

Molecule | Ki [1] [µM] | Km [2] [µM]
Nc1ncnc2c1ncn2[C@@H]1O[C@H](CSCC[C@H](N)C(=O)O)[C@@H](O)[C@H]1O [SAH, S-Adenosyl-L-homocysteine] | 4.12 | –
CTL843 (SAMHT, SAM/SAH transporter) (Chlamydia trachomatis L2/434/Bu) (protein) MVAVKALLFACTLRTCVFKPCCDMAIFLIFLNAFIWSSSFALSKSAMEAAAPLFVTGSRMVLAGVVLFGLLLCKRESLRLPRPAIMPIVLLSVIGFYLTNVLEFIGLQRLSSSTACFIYGFSPFTAAFCSYVQLREVVTWKKLGGLSLGLVSYLVYLLFGGSEDVAEWGWQLGLPELLLIAATCLSSYGWTLLRKLGRRCESLSMTAINAYAMVIAGVLSLIHSAVTEVWNPVPVENPLLFLQAIGALVIFSNLICYNLFAKLLRSFSSTFLSFCNLVMPLFASFFGWLLLGESFPPGLLFAVGFMVLGCRLIYHEEFRQGYVLTSE | – | 5.88 ± 0.11
